Data published in patent US20180071317A1, “USE OF AGENTS THAT ALTER THE PERITUMORAL ENVIRONMENT FOR THE TREATMENT OF CANCER” (SERVICIO ANDALUZ DE SALUD, priority 2011, published 2018).

Columns and labels:
polymorphonuclear cells = experiment: Marker expression (immunohistochemistry) in polymorphonuclear blood cells with SP alone or with NK1 antagonists; format: cell-based, human; conditions: SP 1 μM + antagonist 1 μM; 48 h
From the text: Briefly, heparinized blood from healthy donors was centrifuged so as to separate the various components thereof. Red blood cells remained at the bottom of the tube. Above them was a small white layer composed of the white blood cells and above, on top of the tube, the blood plasma. The layer of white cells was distributed in a culture plate of 24 wells by adding in each the same concentration of blood plasma from the same donor, supplemented with 1% antibiotic-antimycotic (Invitrogen). In each well, approximately 1000 cells (PHF) skin from the dermis were further added, obtained as previously described in Example 2. […] After 48 hours of incubation, cells were collected and embedded in paraffin for expression analysis by immunohistochemical techniques (as described in Example 1).
The expression of TGF molecular markers (anti-TGF 2, SAB4502956) and NF-kB (anti-NF-kB, SAB4501992) using specific antibodies against them were analyzed. All antibodies used were rabbit polyclonal antibodies obtained from Sigma Aldrich and were used at a concentration of 1/1000. All experiments were carried out sixfold.

[1] = tested on: fibroblasts (PHF) co-cultured with tumor cells of human gastric adenocarcinoma (23132/87); experiment: Marker expression (IHC) in PHF co-cultured with 23132/87 tumor cells; format: cell-based; conditions: co-culture with 23132/87; SP 1 μM + antagonist 1 μM; 48 h;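 also: cultures grown in fresh plasma from a healthy human donor, values give the percentage of PHF fibroblasts positive for the marker, each experiment run in six replicates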
[2] = tested on: fibroblasts (PHF) co-cultured with human choriocarcinoma tumor cells (AC-1M32); experiment: Marker expression (IHC) in PHF co-cultured with AC-1M32 tumor cells; format: cell-based; conditions: co-culture with AC-1M32; SP 1 μM + antagonist 1 μM; 48 h;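 also: Read-out is the percentage of PHF fibroblasts positive for each marker, with cells grown in fresh healthy-donor blood plasma, six replicates, reference being fibroblasts cultured alone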
Protocol: (§1) All cultures were maintained 48 hours, following which the same cells were included in paraffin blocks for subsequent analysis of the expression of different markers by immunohistochemistry (see Example 1). […] All experiments were carried out sixfold. Analyzed markers in fibroblast cells (stromal cells) were: TGF-α, TGF-β1, TGF-β2, TGF-β3, SPARC, MMP-3, MMP-7, MMP-9, MMP-11, MMP-13 and MMP-14.

[3] = tested on: fibroblasts (PHF) co-cultivated with tumor cell carcinoma of urinary bladder (5637); experiment: Marker expression (IHC) in PHF co-cultured with 5637 tumor cells; format: cell-based, human; conditions: co-culture with 5637; SP 1 μM + antagonist 1 μM; 48 h
Protocol: as §1

[4] = tested on: fibroblasts (PHF) co-cultured with human neuroblastoma tumor cells (KELLY); experiment: Marker expression (IHC) in PHF co-cultured with KELLY tumor cells; format: cell-based; conditions: PHF co-cultured with KELLY + SP + NK1 antagonist;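 also: Co-cultures grown on healthy-donor human blood plasma, run in six replicates, value is percentage of fibroblasts positive for each marker, compared with fibroblasts cultured alone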
Protocol: as §1

[5] = tested on: fibroblasts of tumors produced by human rhabdomyosarcoma tumor line (A-204); experiment: Marker expression (IHC) in fibroblasts of tumor or peritumoral area, mouse model, A-204; format: in vivo; conditions: A-204 tumors in mice, 30 mg/kg/day oral, 7 days
Protocol: In vitro tests conducted in Example 5 are now carried out in an experimental model in mice in vivo. […] Subsequently, the expression in fibroblasts tumoral and peritumoral area of molecular markers associated with progression and maintenance of tumors: TGF-α, TGF-β1, TGF-β2, TGF-β3, MMP-7, MMP-11, MMP-14 were analyzed by immunohistochemistry.
Were injected with 2×10^7 cells tumors (corresponding, in each case to each of the tumor types as specified in Table 9) in 200 of PBS subcutaneously μl. […] Mice were randomized into two groups when the tumors reached a volume of 75 mm^3 One group was treated with non-peptide receptor antagonists NK1 and the other with placebo 200μ1. […] Tumors and samples of non-neoplastic stromal areas remote from the tumor were halved, formalin fixed (4%) and then were included in paraffin blocks for analysis by immunohistochemistry.
The expression on fibroblast cells obtained in the animal model was analyzed by immunohistochemistry, of the above markers: TGF-α, TGF-β1, TGF-β2, TGF-β3, MMP-7, MMP-1 1, MMP-14MP-14. Tables 32 to 35 depict the type of label used and the average percentage of fibroblasts present in non-tumor areas, tumor and peritumoral (±SD) which were expressing the marker shown in each of the tumor types developed from of the different cell lines used. This process was realized in mice treated with non-peptide antagonists of NK1 receptor and in untreated animals (control).

[6] = tested on: co-cultures of tumor cells-endothelial cells (C-12210); experiment: Inhibition/survival in co-cultures of primary human tumor cells and endothelial cells; format: cell-based; conditions: survival in reference to control, SP 1 μM, Vestipitant 1 μM
Protocol: To check that the interaction of primary tumor cells extracted directly from human with human vascular endothelial cells, promotes the survival of both cell types, co-cultures were performed microvascular endothelial cells from juvenile foreskins (PromoCell GmbH, Sickingenstraβe 63/65, D-69126 Heidelberg, Germany; reference C-12210) with tumor cells obtained directly from primary human tumors.
A total of 6 wells containing tumor cells were used as control for survival. Another 6 wells containing tumor cells were cultured with addition of endothelial cells.
Subsequently, cells were embedded in paraffin for analysis by immunohistochemistry. In order to identify the different cell types and quantity of them [They were labelled with primary antibodies specific for human endothelial cells (anti-CD31), carcinoma cells (Anti-Cytokeratins Spread Spectrum), glioma (Anti-glial fibrillary acidic protein), fibrosarcoma and malignant fibrous histiocytoma (Anti-Smooth Muscle Actin), Ewing sarcoma (Anti-CD99), Melanoma (Anti-HMB45), leukemias and lymphomas (Anti-Common Antigen Leucitario) and myeloma (anti CD 138). All antibodies are distributed by Dako and were used at the same concentration which is supplied (supplied pre-diluted—“ready to use”).

[7] = Carcinoma of lung, (Small cell carcinoma in Table 36)
[8] = Carcinoma of lung, Non Small Cell Carcinoma in Table 36
[9] = Carcinoma of thyroid, (Follicular Carcinoma in Table 36)
[10] = Carcinoma of thyroid, (Papillary Carcinoma in Table 36)

Cc1cc(F)ccc1[C@H]1CNCCN1C(=O)N(C)[C@H](C)c1cc(C(F)(F)F)cc(C(F)(F)F)c1 [Vestipitant]
polymorphonuclear cells expressing NF-kB (polymorphonuclear cells): 0%
polymorphonuclear cells expressing TGF-β (polymorphonuclear cells): 0%
PHF cells expressing MMP-3 [1]: 0%
PHF cells expressing MMP-7 [1]: 0%
PHF cells expressing MMP-9 [1]: 0%
PHF cells expressing MMP-11 [1]: 0%
PHF cells expressing MMP-13 [1]: 0%
PHF cells expressing MMP-14 [1]: 0%
PHF cells expressing SPARC [1]: 0%
PHF cells expressing TGF-α [1]: 0%
PHF cells expressing TGF-β1 [1]: 0%
PHF cells expressing TGF-β2 [1]: 0%
PHF cells expressing TGF-β3 [1]: 0%
PHF cells expressing MMP-3 [2]: 0%
PHF cells expressing MMP-7 [2]: 0%
PHF cells expressing MMP-9 [2]: 0%
PHF cells expressing MMP-11 [2]: 0%
PHF cells expressing MMP-13 [2]: 0%
PHF cells expressing MMP-14 [2]: 0%
PHF cells expressing SPARC [2]: 0%
PHF cells expressing TGF-α [2]: 0%
PHF cells expressing TGF-β1 [2]: 0%
PHF cells expressing TGF-β2 [2]: 0%
PHF cells expressing TGF-β3 [2]: 0%
PHF cells expressing MMP-3 [3]: 0%
PHF cells expressing MMP-7 [3]: 0%
PHF cells expressing MMP-9 [3]: 0%
PHF cells expressing MMP-11 [3]: 0%
PHF cells expressing MMP-13 [3]: 0%
PHF cells expressing MMP-14 [3]: 0%
PHF cells expressing SPARC [3]: 0%
PHF cells expressing TGF-α [3]: 0%
PHF cells expressing TGF-β1 [3]: 0%
PHF cells expressing TGF-β2 [3]: 0%
PHF cells expressing TGF-β3 [3]: 0%
cells expressing MMP-3 [4]: 0%
cells expressing MMP-7 [4]: 0%
cells expressing MMP-9 [4]: 0%
cells expressing MMP-11 [4]: 0%
cells expressing MMP-13 [4]: 0%
cells expressing MMP-14 [4]: 0%
cells expressing SPARC [4]: 0%
cells expressing TGF-α [4]: 0%
cells expressing TGF-β1 [4]: 0%
cells expressing TGF-β2 [4]: 0%
cells expressing TGF-β3 [4]: 0%
fibroblasts expressing MMP-7 [5]: 0%
fibroblasts expressing MMP-11 [5]: 0%
fibroblasts expressing MMP-14 [5]: 0%
fibroblasts expressing TGF-α [5]: 0%
fibroblasts expressing TGF-β 1 [5]: 0%
fibroblasts expressing TGF-β 2 [5]: 0%
fibroblasts expressing TGF-β 3 [5]: 0%
Endothelial cells co-cultured with tumor cells + SP + Vestipitant ([6]; Carcinoma of Colon): 54 ± 3%
Tumor cells co-cultured with endothelial cells + SP + Vestipitant ([6]; Carcinoma of Colon): 65 ± 6%
Endothelial cells co-cultured with tumor cells + SP + Vestipitant ([6]; Carcinoma of Pancreas): 55 ± 3%
Tumor cells co-cultured with endothelial cells + SP + Vestipitant ([6]; Carcinoma of Pancreas): 47 ± 5%
Endothelial cells co-cultured with tumor cells + SP + Vestipitant ([6]; Carcinoma of breast): 55 ± 4%
Tumor cells co-cultured with endothelial cells + SP + Vestipitant ([6]; Carcinoma of breast): 55 ± 5%
Endothelial cells co-cultured with tumor cells + SP + Vestipitant ([6]; Carcinoma of cervix): 47 ± 4%
Tumor cells co-cultured with endothelial cells + SP + Vestipitant ([6]; Carcinoma of cervix): 47 ± 4%
Endothelial cells co-cultured with tumor cells + SP + Vestipitant ([6]; Carcinoma of endometrial): 56 ± 5%
Tumor cells co-cultured with endothelial cells + SP + Vestipitant ([6]; Carcinoma of endometrial): 47 ± 6%
Endothelial cells co-cultured with tumor cells + SP + Vestipitant [6, 7]: 45 ± 6%
Tumor cells co-cultured with endothelial cells + SP + Vestipitant [6, 7]: 67 ± 5%
Endothelial cells co-cultured with tumor cells + SP + Vestipitant [6, 8]: 45 ± 3%
Tumor cells co-cultured with endothelial cells + SP + Vestipitant [6, 8]: 64 ± 6%
Endothelial cells co-cultured with tumor cells + SP + Vestipitant ([6]; Carcinoma of ovarian): 44 ± 4%
Tumor cells co-cultured with endothelial cells + SP + Vestipitant ([6]; Carcinoma of ovarian): 57 ± 6%
Endothelial cells co-cultured with tumor cells + SP + Vestipitant ([6]; Carcinoma of prostate): 51 ± 6%
Tumor cells co-cultured with endothelial cells + SP + Vestipitant ([6]; Carcinoma of prostate): 48 ± 6%
Endothelial cells co-cultured with tumor cells + SP + Vestipitant ([6]; Carcinoma of stomach): 62 ± 3%
Tumor cells co-cultured with endothelial cells + SP + Vestipitant ([6]; Carcinoma of stomach): 56 ± 4%
Endothelial cells co-cultured with tumor cells + SP + Vestipitant [6, 9]: 46 ± 4%
Tumor cells co-cultured with endothelial cells + SP + Vestipitant [6, 9]: 47 ± 5%
Endothelial cells co-cultured with tumor cells + SP + Vestipitant [6, 10]: 52 ± 5%
Tumor cells co-cultured with endothelial cells + SP + Vestipitant [6, 10]: 55 ± 6%
Endothelial cells co-cultured with tumor cells + SP + Vestipitant ([6]; Fibrosarcoma): 46 ± 7%
Tumor cells co-cultured with endothelial cells + SP + Vestipitant ([6]; Fibrosarcoma): 56 ± 7%
Endothelial cells co-cultured with tumor cells + SP + Vestipitant ([6]; Glioma): 54 ± 3%
Tumor cells co-cultured with endothelial cells + SP + Vestipitant ([6]; Glioma): 47 ± 5%
Endothelial cells co-cultured with tumor cells + SP + Vestipitant ([6]; Hodgkin's Lymphoma): 47 ± 5%
Tumor cells co-cultured with endothelial cells + SP + Vestipitant ([6]; Hodgkin's Lymphoma): 76 ± 5%
Endothelial cells co-cultured with tumor cells + SP + Vestipitant ([6]; Leukemia B): 47 ± 4%
Tumor cells co-cultured with endothelial cells + SP + Vestipitant ([6]; Leukemia B): 53 ± 5%
Endothelial cells co-cultured with tumor cells + SP + Vestipitant ([6]; Leukemia T): 57 ± 4%
Tumor cells co-cultured with endothelial cells + SP + Vestipitant ([6]; Leukemia T): 56 ± 4%
Endothelial cells co-cultured with tumor cells + SP + Vestipitant ([6]; Malignant fibrous histiocytoma): 53 ± 4%
Tumor cells co-cultured with endothelial cells + SP + Vestipitant ([6]; Malignant fibrous histiocytoma): 46 ± 7%
Endothelial cells co-cultured with tumor cells + SP + Vestipitant ([6]; Melanoma): 55 ± 5%
Tumor cells co-cultured with endothelial cells + SP + Vestipitant ([6]; Melanoma): 44 ± 4%
Endothelial cells co-cultured with tumor cells + SP + Vestipitant ([6]; Myeloma): 56 ± 7%
Tumor cells co-cultured with endothelial cells + SP + Vestipitant ([6]; Myeloma): 66 ± 3%
Endothelial cells co-cultured with tumor cells + SP + Vestipitant ([6]; Neuroblastoma): 46 ± 3%
Tumor cells co-cultured with endothelial cells + SP + Vestipitant ([6]; Neuroblastoma): 56 ± 4%
Endothelial cells co-cultured with tumor cells + SP + Vestipitant ([6]; Non-Hodgkin's Lymphoma B): 65 ± 4%
Tumor cells co-cultured with endothelial cells + SP + Vestipitant ([6]; Non-Hodgkin's Lymphoma B): 43 ± 5%
Endothelial cells co-cultured with tumor cells + SP + Vestipitant ([6]; Non-Hodgkin's Lymphoma T): 48 ± 6%
Tumor cells co-cultured with endothelial cells + SP + Vestipitant ([6]; Non-Hodgkin's Lymphoma T): 81 ± 5%
Endothelial cells co-cultured with tumor cells + SP + Vestipitant ([6]; Renal carcinoma): 54 ± 3%
Tumor cells co-cultured with endothelial cells + SP + Vestipitant ([6]; Renal carcinoma): 54 ± 4%
Endothelial cells co-cultured with tumor cells + SP + Vestipitant ([6]; Sarcoma of Ewing): 46 ± 4%
Tumor cells co-cultured with endothelial cells + SP + Vestipitant ([6]; Sarcoma of Ewing): 47 ± 6%
